Reference: publication PMC6694155, “PTPσ inhibitors promote hematopoietic stem cell regeneration” (Nature Communications, 2019)
Values joined by “and” are separate entries in the source; they are usually repeats but may differ in a detail not shown here. Equal entries are not always repeated.

Assays:
BM CD34−KSL HSCs = assay: 7 day culture of non-irradiated BM CD34−KSL cells in TSF media; type: cell-based, mouse; settings: for Supplementary Figure 3a (center panel): 7 day culture of BM CD34−KSL cells / Supplementary Figure 3a (left panel): 7 day culture of BM CD34−KSL cells / Supplementary Figure 3a (right panel): 7 day culture of BM CD34−KSL cells: replicates
Source text: BM cells were first treated with ACK lysis buffer (Sigma Aldrich) and lineage-committed cells were removed using a Direct Lineage Cell Depletion Kit (Miltenyi Biotec, #130-110-470, 1:5). Lin^− cells were stained with APC-Cy7-conjugated anti-mouse Sca1 (BD Biosciences, #560654, 1:100), PE-conjugated anti-ckit (BD Biosciences, #553355, 1:100), V450 lineage cocktail (BD Biosciences, #561301, 1:10), and FITC-conjugated anti-CD34 (BD Biosciences, #553733, 1:100) antibodies. Sterile cell sorting was conducted on a BD FACS-Aria cytometer. Purified KSL cells and CD34^−c-kit^+sca-1^+Lin^− (CD34^−KSL) cells were collected into IMDM (Life Technologies) + 10% FBS + 1% penicillin–streptomycin.
CFC assays (colony-forming unit-granulocyte monocyte), burst-forming unit-erythroid, and CFU-GEMM were performed using MethoCult GF M3434 (Stemcell Technologies)[6]. For all in vitro assays, BM CD34^−KSL cells, KSL cells, and Lin^− cells were cultured in TSF media (IMDM, 10% FBS, 1% pen-strep, 20 ng/mL recombinant mouse TPO, 125 ng/mL recombinant mouse SCF, 50 ng/mL recombinant mouse Flt3 ligand). Recombinant mouse SCF, Flt3 ligand, and TPO were purchased from R&D Systems. For competitive repopulation assays, BM cells were isolated from donor 10–12-week-old female CD45.2^+ mice. Recipient 10-week-old female CD45.1^+ B6.SJL mice were irradiated with 950 cGy TBI using a Cs137 irradiator and donor BM cells were administered via tail vein injection along with a competing dose of 1 × 10^5 non-irradiated host BM cells. Multilineage donor hematopoietic cell engraftment was measured in the PB by flow cytometry.

[1] = target: T1, TCPTP (T-Cell Protein-Tyrosine Phosphatase) (Homo sapiens, UniProt P17706); assay: PhosphataseProfiler screen: TCPTP; type: biochemical; settings: replicates
T1 construct: purchased Eurofins Pharma Discovery Services UK
T1 sequence (P17706 whole entry, species assumed): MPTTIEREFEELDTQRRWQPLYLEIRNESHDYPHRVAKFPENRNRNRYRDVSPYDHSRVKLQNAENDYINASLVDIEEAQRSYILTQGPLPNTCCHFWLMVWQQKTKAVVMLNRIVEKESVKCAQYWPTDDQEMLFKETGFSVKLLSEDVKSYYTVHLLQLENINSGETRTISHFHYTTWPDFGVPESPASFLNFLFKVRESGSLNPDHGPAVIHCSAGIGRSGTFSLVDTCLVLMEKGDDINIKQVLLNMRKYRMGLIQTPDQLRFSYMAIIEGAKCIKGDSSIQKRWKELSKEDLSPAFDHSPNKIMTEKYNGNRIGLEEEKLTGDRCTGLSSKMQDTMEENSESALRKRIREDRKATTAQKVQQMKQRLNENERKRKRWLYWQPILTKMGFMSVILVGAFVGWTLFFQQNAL
Description: (§1) Compound DJ001 was evaluated in a PhosphataseProfiler™ screen at 10 μM and 1 μM (2.7 μg/mL and 0.27 μg/mL) concentrations at Eurofins Pharma Discovery Services UK (Study number UK022-0004033) against a panel of 21 Phosphatases. In each experiment, the respective reference antagonist/agonist was tested directly with DJ001 and the data were compared with historical values determined at Eurofins. DJ001 compound inhibition was calculated as percentage inhibition of the enzymatic activity compared with control.

[2] = target: T2, Lambda PP (Lambda Protein Phosphatase) (Escherichia phage lambda, UniProt P03772); assay: PhosphataseProfiler screen: Lambda PP; type: biochemical; settings: replicates
T2 construct: purchased Eurofins Pharma Discovery Services UK
T2 sequence (P03772 whole entry): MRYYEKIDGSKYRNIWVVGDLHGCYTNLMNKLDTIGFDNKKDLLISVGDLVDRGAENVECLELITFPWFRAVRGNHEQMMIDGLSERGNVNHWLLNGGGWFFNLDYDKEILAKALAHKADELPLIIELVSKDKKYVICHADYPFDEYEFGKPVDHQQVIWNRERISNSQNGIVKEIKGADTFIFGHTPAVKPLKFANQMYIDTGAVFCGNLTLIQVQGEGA
Description: as §1

[3] = tested on: PPA (Protein Phosphatase 1); assay: PhosphataseProfiler screen: PPA; type: biochemical; settings: replicates, in % (unit assumed)
Description: as §1

BM KSL cells = assay: Gene expression of pro- and anti-apoptotic genes in irradiated BM KSL cells (qPCR); type: cell-based, mouse; set-up: key to Figure 3g: gene expression, Bax / Figure 3g: gene expression, Bcl-2 / Figure 3g: gene expression, Bcl-xL / Figure 3g: gene expression, Bim / Figure 3g: gene expression, Mcl1: fold change, 2^-ΔΔCt vs media-treated non-irradiated KSL, Gapdh-normalized
Source text: For all studies, RNA was isolated using the Qiagen RNeasy micro kit (Qiagen). RNA was reverse transcribed using the High-Capacity cDNA Reverse Transcription Kit (ThermoFisher Scientific) and was then used for quantitative PCR with SYBR Select Master Mix (Life Technologies). Values were normalized to housekeeping gene Gapdh/GAPDH and given as ΔΔCt values normalized to media-treated, non-irradiated BM KSL cells (2(−ΔΔC(T)) method)[67].

[4] = target: T3, PTP1B (Protein Tyrosine Phosphatase 1B) (Homo sapiens, UniProt P18031); assay: PhosphataseProfiler screen: PTP1B; type: biochemical; settings: replicates
T3 construct: purchased Eurofins Pharma Discovery Services UK
T3 sequence (P18031 whole entry, species assumed): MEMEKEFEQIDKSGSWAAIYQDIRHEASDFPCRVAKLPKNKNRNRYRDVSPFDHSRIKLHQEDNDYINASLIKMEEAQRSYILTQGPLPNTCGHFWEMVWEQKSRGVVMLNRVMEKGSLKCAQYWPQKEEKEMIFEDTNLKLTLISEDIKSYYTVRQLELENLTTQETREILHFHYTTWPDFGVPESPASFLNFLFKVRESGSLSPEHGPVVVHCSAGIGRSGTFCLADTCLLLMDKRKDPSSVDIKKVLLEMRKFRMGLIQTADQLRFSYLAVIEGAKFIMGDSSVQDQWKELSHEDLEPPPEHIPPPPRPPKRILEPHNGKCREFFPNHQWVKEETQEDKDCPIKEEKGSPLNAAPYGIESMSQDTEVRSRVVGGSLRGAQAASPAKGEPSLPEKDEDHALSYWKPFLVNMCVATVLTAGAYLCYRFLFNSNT
Description: as §1

panel of 21 Phosphatases = assay: PhosphataseProfiler screen, whole panel; type: biochemical; settings: DJ001 at 10 μM and 1 μM
Description: as §1

[5] = target: T4, RPTPμ (Receptor Protein Tyrosine Phosphatase Mu) (Homo sapiens, UniProt P28827); assay: PhosphataseProfiler screen: RPTPμ; type: biochemical; settings: replicates
T4 construct: purchased Eurofins Pharma Discovery Services UK
T4 sequence (P28827 21-1452, species assumed): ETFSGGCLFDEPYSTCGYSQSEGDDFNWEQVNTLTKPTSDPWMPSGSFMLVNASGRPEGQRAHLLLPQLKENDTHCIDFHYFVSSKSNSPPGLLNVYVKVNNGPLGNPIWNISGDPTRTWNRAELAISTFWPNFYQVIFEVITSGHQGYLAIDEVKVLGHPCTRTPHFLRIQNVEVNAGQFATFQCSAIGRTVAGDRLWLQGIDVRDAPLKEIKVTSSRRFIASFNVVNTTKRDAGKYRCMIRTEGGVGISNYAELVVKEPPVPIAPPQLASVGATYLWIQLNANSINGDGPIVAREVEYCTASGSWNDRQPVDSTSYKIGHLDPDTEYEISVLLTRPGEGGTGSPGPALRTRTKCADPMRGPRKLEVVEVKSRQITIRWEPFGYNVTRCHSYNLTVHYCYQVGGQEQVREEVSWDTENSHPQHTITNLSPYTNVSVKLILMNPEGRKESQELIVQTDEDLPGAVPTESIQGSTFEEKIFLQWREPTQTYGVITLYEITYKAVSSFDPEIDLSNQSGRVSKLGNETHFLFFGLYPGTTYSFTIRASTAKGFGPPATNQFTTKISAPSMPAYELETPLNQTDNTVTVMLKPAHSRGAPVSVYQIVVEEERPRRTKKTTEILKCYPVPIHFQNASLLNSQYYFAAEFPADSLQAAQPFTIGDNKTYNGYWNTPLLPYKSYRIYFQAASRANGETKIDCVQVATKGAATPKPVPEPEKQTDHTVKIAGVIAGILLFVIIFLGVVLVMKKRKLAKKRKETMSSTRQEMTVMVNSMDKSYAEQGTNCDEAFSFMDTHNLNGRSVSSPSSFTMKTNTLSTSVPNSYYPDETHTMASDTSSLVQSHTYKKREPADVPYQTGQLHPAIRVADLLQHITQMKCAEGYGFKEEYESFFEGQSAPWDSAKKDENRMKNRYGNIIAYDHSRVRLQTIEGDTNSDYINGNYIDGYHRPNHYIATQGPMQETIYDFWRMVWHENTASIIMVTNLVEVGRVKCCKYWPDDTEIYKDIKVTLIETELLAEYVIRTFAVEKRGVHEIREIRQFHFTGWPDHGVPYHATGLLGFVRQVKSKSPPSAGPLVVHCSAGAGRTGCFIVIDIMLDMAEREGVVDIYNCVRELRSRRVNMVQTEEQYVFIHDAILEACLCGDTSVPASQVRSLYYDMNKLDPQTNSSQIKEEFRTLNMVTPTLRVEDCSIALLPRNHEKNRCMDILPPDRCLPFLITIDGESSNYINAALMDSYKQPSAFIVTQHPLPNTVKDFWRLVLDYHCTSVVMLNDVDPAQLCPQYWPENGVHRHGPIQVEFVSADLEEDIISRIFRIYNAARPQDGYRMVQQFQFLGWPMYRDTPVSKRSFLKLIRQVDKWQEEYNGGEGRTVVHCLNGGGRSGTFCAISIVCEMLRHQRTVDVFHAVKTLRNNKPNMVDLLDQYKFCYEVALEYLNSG
Description: as §1

[6] = target: T5, LMPTP-A (Low Molecular Weight Protein Tyrosine Phosphatase A) (Homo sapiens, UniProt P24666); assay: PhosphataseProfiler screen: LMPTP-A; type: biochemical; settings: replicates
T5 construct: purchased Eurofins Pharma Discovery Services UK
T5 sequence (P24666 whole entry, species assumed): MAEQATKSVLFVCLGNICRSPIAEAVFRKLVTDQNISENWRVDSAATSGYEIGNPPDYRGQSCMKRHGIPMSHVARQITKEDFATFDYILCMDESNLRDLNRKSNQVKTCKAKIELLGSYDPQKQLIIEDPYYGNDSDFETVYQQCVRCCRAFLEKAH
Description: as §1

[7] = target: T6, PTPMEG1 (Megakaryocyte Protein-Tyrosine Phosphatase 1) (Homo sapiens, UniProt P29074); assay: PhosphataseProfiler screen: PTPMEG1; type: biochemical; settings: replicates
T6 construct: purchased Eurofins Pharma Discovery Services UK
T6 sequence (P29074 whole entry): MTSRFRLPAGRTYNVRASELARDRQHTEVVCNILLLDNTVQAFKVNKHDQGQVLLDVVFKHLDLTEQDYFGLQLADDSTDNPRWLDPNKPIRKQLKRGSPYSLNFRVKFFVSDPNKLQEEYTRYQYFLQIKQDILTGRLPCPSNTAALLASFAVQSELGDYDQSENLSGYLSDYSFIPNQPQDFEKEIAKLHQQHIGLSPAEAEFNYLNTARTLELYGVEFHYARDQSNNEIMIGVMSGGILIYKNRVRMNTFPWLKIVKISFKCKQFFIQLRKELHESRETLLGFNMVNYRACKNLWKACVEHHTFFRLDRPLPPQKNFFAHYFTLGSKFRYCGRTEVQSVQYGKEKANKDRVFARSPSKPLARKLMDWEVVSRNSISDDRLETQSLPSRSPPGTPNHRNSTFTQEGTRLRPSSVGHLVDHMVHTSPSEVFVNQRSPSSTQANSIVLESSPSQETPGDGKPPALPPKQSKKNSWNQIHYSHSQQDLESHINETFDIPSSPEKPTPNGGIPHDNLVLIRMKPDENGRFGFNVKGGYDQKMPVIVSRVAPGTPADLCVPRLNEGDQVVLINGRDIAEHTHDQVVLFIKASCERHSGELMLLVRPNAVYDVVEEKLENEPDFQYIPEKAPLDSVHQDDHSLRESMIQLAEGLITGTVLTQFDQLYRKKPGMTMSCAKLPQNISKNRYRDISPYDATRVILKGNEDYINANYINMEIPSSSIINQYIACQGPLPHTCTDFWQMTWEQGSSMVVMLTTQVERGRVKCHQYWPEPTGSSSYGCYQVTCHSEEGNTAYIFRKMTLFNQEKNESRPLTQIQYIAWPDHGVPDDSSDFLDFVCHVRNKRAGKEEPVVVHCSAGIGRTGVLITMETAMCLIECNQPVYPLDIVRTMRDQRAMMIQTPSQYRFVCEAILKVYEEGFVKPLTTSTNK
Description: as §1

[8] = BM KSL cells, 12 h post 300 cGy
[9] = irradiated BM KSL cells, qPCR, replicates

With O=C(/C=C\Nc1cccc([N+](=O)[O-])c1)c1ccccc1 [DJ001, (Z)-3-((3-nitrophenyl)amino)-1-phenylprop-2-en-1-one] the “Supplementary Figure 3a (center panel): 7 day culture of BM CD34−KSL cells” value (from here on “Supplementary Figure 3a (center panel)”) (BM CD34−KSL HSCs; 10 ng/mL) was 8.03 and 6.26 and 7.07 and 7.49, the “Supplementary Figure 3a (left panel): 7 day culture of BM CD34−KSL cells” value (shortened to “Supplementary Figure 3a (left panel)”) (BM CD34−KSL HSCs; 10 ng/mL) was 107000 and 154000 and 141000 and 135000 and the “Supplementary Figure 3a (right panel): 7 day culture of BM CD34−KSL cells” value (from here on “Supplementary Figure 3a (right panel)”) (BM CD34−KSL HSCs; 10 ng/mL) was 8589 and 9633 and 9964 and 10109. For the same compound, the “Supplementary Figure 3a (center panel)” value (BM CD34−KSL HSCs; 100 ng/mL) was 15.07 and 8.84 and 9.18 and 11.37, the “Supplementary Figure 3a (left panel)” value (BM CD34−KSL HSCs; 100 ng/mL) was 127000 and 142000 and 174000 and 219000 and the “Supplementary Figure 3a (right panel)” value (BM CD34−KSL HSCs; 100 ng/mL) was 19062 and 12549 and 15920 and 24836. For the same compound, the “Supplementary Figure 3a (center panel)” value (BM CD34−KSL HSCs; 1000 ng/mL) was 16.07 and 11.49 and 11 and 12.87, the “Supplementary Figure 3a (left panel)” value (BM CD34−KSL HSCs; 1000 ng/mL) was 131000 and 209000 and 128000 and 136000 and the “Supplementary Figure 3a (right panel)” value (BM CD34−KSL HSCs; 1000 ng/mL) was 21058 and 24017 and 14076 and 17507. For the same compound, the “percentages and numbers of BM KSL cells in culture vs control” value (BM CD34−KSL HSCs; 10–1,000 ng/mL DJ001, 7 days) was “increased the percentages and numbers of BM KSL cells”, the “Supplementary Figure 1: TCPTP activity” value ([1]; 2.7 μg/mL DJ001) was 91 and 103 and 88 and the “Supplementary Figure 1: TCPTP activity” value ([1]; 0.27 g/mL DJ001) was 97 and 96 and 99. The “Supplementary Figure 1: Lambda PP activity” value ([2]; 0.27 μg/mL DJ001) was 126 and 132 and 133, the “Supplementary Figure 1: Lambda PP activity” value ([2]; 2.7 μg/mL DJ001) was 118 and 122 and 125 and the “Supplementary Figure 1: PPA activity” value ([3]; 2.7 μg/mL DJ001) was 101 and 93 and 96. The “Supplementary Figure 1: PPA activity” value ([3]; 0.27 g/mL DJ001) was 96 and 90 and 101, the “expression of Bim, Bax, Puma, Bcl2” value (BM KSL cells; [8]) was “no effect” and the “expression of Mcl-1 and Bcl2l1” value (BM KSL cells; [8]) was “increased the expression”. For the same compound, the “Figure 3g: gene expression, Bax” value (BM KSL cells; [9]) was 2.95 and 3.78 and 1.75, the “Figure 3g: gene expression, Bcl-2” value (BM KSL cells; [9]) was 1.73 and 1.94 and 1.28 and 1.59 and 1.76 and 1.06 and the “Figure 3g: gene expression, Bcl-xL” value (BM KSL cells; [9]) was 4.94 and 3.23 and 6.87 and 4.82 and 3.79 and 5.97. For the same compound, the “Figure 3g: gene expression, Bim” value (BM KSL cells; [9]) was 2.95 and 3.78 and 2.75, the “Figure 3g: gene expression, Mcl1” value (BM KSL cells; [9]) was 1.95 and 1.78 and 2.55 and 0.81 and 1.62 and 1.96 and the “Figure 3g: gene expression, Puma” value (BM KSL cells; [9]) was 2.95 and 1.78 and 1.75. For the same compound, the “Supplementary Figure 1: PTP1B activity” value ([4]; 0.27 μg/mL DJ001) was 97 and 90 and 91, the “Supplementary Figure 1: PTP1B activity” value ([4]; 2.7 μg/mL DJ001) was 96 and 86 and 90 and the “inhibitory activity against 20 other phosphatases” value (panel of 21 Phosphatases) was “no inhibitory activity”. For the same compound, the “Supplementary Figure 1: RPTP activity” value ([5]; 2.7 μg/mL DJ001) was 83 and 98 and 86, the “Supplementary Figure 1: RPTP activity” value ([5]; 0.27 g/mL DJ001) was 92 and 99 and 95 and the “Supplementary Figure 1: LMPTP-A activity” value ([6]; 0.27 g/mL DJ001) was 100 and 90 and 93. The “Supplementary Figure 1: LMPTP-A activity” value ([6]; 2.7 g/mL DJ001) was 78 and 84 and 89, the “Supplementary Figure 1: PTP MEG1 activity” value ([7]; 2.7 μg/mL DJ001) was 100 and 92 and 105 and the “Supplementary Figure 1: PTP MEG1 activity” value ([7]; 0.27 g/mL DJ001) was 103 and 114 and 105.
